Settings: Hot wire method

C=C(F)C(F)(F)F [2,3,3,3-tetrafluoro-1-propene]
Settings | thermal conductivity [W/m/K]
241.92 K, 6085 kPa, Liquid | 0.08525
241.92 K, 10976 kPa, Liquid | 0.08707
241.93 K, 15764 kPa, Liquid | 0.08965
241.94 K, 69 kPa, Gas | 0.00942
241.95 K, 77 kPa, Gas | 0.00944
241.95 K, 20987 kPa, Liquid | 0.09158
241.97 K, 86 kPa, Gas | 0.00944
242 K, 880 kPa, Liquid | 0.08218
242.01 K, 6088 kPa, Liquid | 0.08496
242.01 K, 10981 kPa, Liquid | 0.08718
242.02 K, 15753 kPa, Liquid | 0.08918
242.19 K, 69 kPa, Gas | 0.00931
242.2 K, 78 kPa, Gas | 0.00934
242.22 K, 87 kPa, Gas | 0.00935
242.34 K, 883 kPa, Liquid | 0.08243
242.34 K, 10985 kPa, Liquid | 0.08732
242.34 K, 15757 kPa, Liquid | 0.08916
242.35 K, 6087 kPa, Liquid | 0.08514
242.35 K, 20980 kPa, Liquid | 0.09106
242.35 K, 21022 kPa, Liquid | 0.09102
242.46 K, 15754 kPa, Liquid | 0.08876
242.47 K, 69 kPa, Gas | 0.00926
242.47 K, 78 kPa, Gas | 0.00926
242.47 K, 886 kPa, Liquid | 0.08219
242.47 K, 6087 kPa, Liquid | 0.08483
242.47 K, 10989 kPa, Liquid | 0.08709
242.5 K, 87 kPa, Gas | 0.00928
242.52 K, 87 kPa, Gas | 0.00925
242.54 K, 68 kPa, Gas | 0.00927
242.54 K, 76 kPa, Gas | 0.00929
242.8 K, 20976 kPa, Liquid | 0.09105
242.81 K, 10986 kPa, Liquid | 0.08711
242.81 K, 15750 kPa, Liquid | 0.08896
242.81 K, 21021 kPa, Liquid | 0.09106
242.83 K, 6086 kPa, Liquid | 0.08481
242.85 K, 891 kPa, Liquid | 0.08226
242.88 K, 87 kPa, Gas | 0.00926
242.9 K, 77 kPa, Gas | 0.00929
242.91 K, 68 kPa, Gas | 0.0093
242.94 K, 15756 kPa, Liquid | 0.08889
242.96 K, 10985 kPa, Liquid | 0.08695
242.98 K, 6086 kPa, Liquid | 0.08445
243 K, 892 kPa, Liquid | 0.082
243.28 K, 86 kPa, Gas | 0.00928
243.29 K, 21014 kPa, Liquid | 0.09132
243.3 K, 77 kPa, Gas | 0.0093
243.3 K, 20966 kPa, Liquid | 0.09102
243.31 K, 69 kPa, Gas | 0.00933
243.32 K, 10987 kPa, Liquid | 0.08693
243.32 K, 15749 kPa, Liquid | 0.0891
243.35 K, 6084 kPa, Liquid | 0.08459
243.38 K, 894 kPa, Liquid | 0.08224
243.47 K, 15756 kPa, Liquid | 0.08884
243.5 K, 10983 kPa, Liquid | 0.08672
243.53 K, 6087 kPa, Liquid | 0.0843
243.57 K, 898 kPa, Liquid | 0.08198
243.7 K, 86 kPa, Gas | 0.00931
243.73 K, 78 kPa, Gas | 0.00931
243.75 K, 69 kPa, Gas | 0.00935
243.84 K, 20954 kPa, Liquid | 0.09109
243.85 K, 21009 kPa, Liquid | 0.09114
243.87 K, 15753 kPa, Liquid | 0.08885
243.9 K, 10980 kPa, Liquid | 0.0868
243.94 K, 6082 kPa, Liquid | 0.08438
243.98 K, 898 kPa, Liquid | 0.08174
244.07 K, 15757 kPa, Liquid | 0.08866
244.11 K, 10979 kPa, Liquid | 0.08646
244.16 K, 86 kPa, Gas | 0.00935
244.16 K, 6088 kPa, Liquid | 0.08418
244.2 K, 78 kPa, Gas | 0.00935
244.21 K, 900 kPa, Liquid | 0.08153
244.22 K, 69 kPa, Gas | 0.00937
251.4 K, 100 kPa, Gas | 0.0102
251.41 K, 121 kPa, Gas | 0.01025
251.42 K, 129 kPa, Gas | 0.01024
251.64 K, 100 kPa, Gas | 0.01009
251.65 K, 121 kPa, Gas | 0.01014
251.66 K, 129 kPa, Gas | 0.01016
251.9 K, 121 kPa, Gas | 0.00997
251.91 K, 100 kPa, Gas | 0.01002
251.91 K, 121 kPa, Gas | 0.01007
251.91 K, 130 kPa, Gas | 0.01
251.92 K, 129 kPa, Gas | 0.01009
251.93 K, 100 kPa, Gas | 0.00998
252.23 K, 121 kPa, Gas | 0.00999
252.23 K, 130 kPa, Gas | 0.00999
252.28 K, 100 kPa, Gas | 0.01003
252.6 K, 122 kPa, Gas | 0.01002
252.6 K, 130 kPa, Gas | 0.01
252.67 K, 100 kPa, Gas | 0.01006
253 K, 129 kPa, Gas | 0.01005
253.01 K, 121 kPa, Gas | 0.01006
253.09 K, 100 kPa, Gas | 0.01007
253.43 K, 129 kPa, Gas | 0.01006
253.45 K, 121 kPa, Gas | 0.01008
253.53 K, 100 kPa, Gas | 0.0101
261.38 K, 995 kPa, Liquid | 0.07662
261.4 K, 996 kPa, Liquid | 0.07661
261.41 K, 6311 kPa, Liquid | 0.07964
261.48 K, 992 kPa, Liquid | 0.07655
261.48 K, 996 kPa, Liquid | 0.07656
261.5 K, 6309 kPa, Liquid | 0.07953
261.84 K, 987 kPa, Liquid | 0.07643
261.85 K, 6313 kPa, Liquid | 0.07948
261.87 K, 11445 kPa, Liquid | 0.08189
261.88 K, 21642 kPa, Liquid | 0.0867
261.96 K, 983 kPa, Liquid | 0.07514
261.97 K, 1005 kPa, Liquid | 0.07519
261.97 K, 6311 kPa, Liquid | 0.07846
261.97 K, 11446 kPa, Liquid | 0.0813
261.98 K, 21635 kPa, Liquid | 0.08614
262.35 K, 11445 kPa, Liquid | 0.08085
262.35 K, 16435 kPa, Liquid | 0.08308
262.35 K, 21632 kPa, Liquid | 0.08538
262.36 K, 6309 kPa, Liquid | 0.0784
262.37 K, 990 kPa, Liquid | 0.0754
262.38 K, 999 kPa, Liquid | 0.07563
262.48 K, 21630 kPa, Liquid | 0.08542
262.49 K, 11446 kPa, Liquid | 0.08082
262.49 K, 16441 kPa, Liquid | 0.08301
262.51 K, 984 kPa, Liquid | 0.07532
262.51 K, 6308 kPa, Liquid | 0.07834
262.53 K, 1003 kPa, Liquid | 0.0754
262.87 K, 94 kPa, Gas | 0.01103
262.87 K, 141 kPa, Gas | 0.01112
262.87 K, 180 kPa, Gas | 0.01121
262.87 K, 21632 kPa, Liquid | 0.08568
262.89 K, 16441 kPa, Liquid | 0.0831
262.9 K, 11444 kPa, Liquid | 0.08074
262.93 K, 6308 kPa, Liquid | 0.07833
262.95 K, 981 kPa, Liquid | 0.07547
262.97 K, 1000 kPa, Liquid | 0.07554
263.04 K, 21629 kPa, Liquid | 0.08528
263.06 K, 16439 kPa, Liquid | 0.0831
263.08 K, 11447 kPa, Liquid | 0.08051
263.1 K, 94 kPa, Gas | 0.01092
263.1 K, 139 kPa, Gas | 0.01099
263.1 K, 178 kPa, Gas | 0.01109
263.11 K, 6306 kPa, Liquid | 0.07818
263.14 K, 981 kPa, Liquid | 0.07525
263.15 K, 1006 kPa, Liquid | 0.07526
263.3 K, 186 kPa, Gas | 0.01073
263.33 K, 145 kPa, Gas | 0.01079
263.34 K, 176 kPa, Gas | 0.01103
263.35 K, 137 kPa, Gas | 0.01093
263.36 K, 94 kPa, Gas | 0.01083
263.41 K, 93 kPa, Gas | 0.01084
263.45 K, 21625 kPa, Liquid | 0.0853
263.47 K, 16441 kPa, Liquid | 0.08318
263.51 K, 11446 kPa, Liquid | 0.08071
263.55 K, 6310 kPa, Liquid | 0.07796
263.59 K, 977 kPa, Liquid | 0.0751
263.61 K, 184 kPa, Gas | 0.01083
263.61 K, 1002 kPa, Liquid | 0.07516
263.65 K, 21628 kPa, Liquid | 0.08509
263.66 K, 143 kPa, Gas | 0.01082
263.68 K, 16436 kPa, Liquid | 0.08284
263.72 K, 11448 kPa, Liquid | 0.08052
263.76 K, 94 kPa, Gas | 0.01087
263.77 K, 6312 kPa, Liquid | 0.07776
263.83 K, 978 kPa, Liquid | 0.07472
263.83 K, 1003 kPa, Liquid | 0.0748
263.97 K, 181 kPa, Gas | 0.01086
264.03 K, 141 kPa, Gas | 0.01087
264.1 K, 21626 kPa, Liquid | 0.08524
264.13 K, 94 kPa, Gas | 0.01089
264.14 K, 16440 kPa, Liquid | 0.08287
264.18 K, 11446 kPa, Liquid | 0.08043
264.33 K, 21622 kPa, Liquid | 0.08504
264.34 K, 179 kPa, Gas | 0.01089
264.38 K, 16435 kPa, Liquid | 0.08267
264.41 K, 140 kPa, Gas | 0.01091
264.42 K, 11443 kPa, Liquid | 0.08017
264.55 K, 94 kPa, Gas | 0.01091
264.75 K, 177 kPa, Gas | 0.01092
264.83 K, 138 kPa, Gas | 0.01094
264.99 K, 94 kPa, Gas | 0.01095
271.81 K, 106 kPa, Gas | 0.01176
271.82 K, 144 kPa, Gas | 0.01183
271.83 K, 200 kPa, Gas | 0.01195
272.04 K, 105 kPa, Gas | 0.01163
272.04 K, 200 kPa, Gas | 0.01186
272.05 K, 143 kPa, Gas | 0.0117
272.22 K, 246 kPa, Gas | 0.01157
272.22 K, 271 kPa, Gas | 0.01155
272.24 K, 200 kPa, Gas | 0.01151
272.28 K, 200 kPa, Gas | 0.01178
272.29 K, 104 kPa, Gas | 0.01154
272.29 K, 148 kPa, Gas | 0.01151
272.3 K, 141 kPa, Gas | 0.01161
272.34 K, 108 kPa, Gas | 0.01153
272.5 K, 272 kPa, Gas | 0.01161
272.54 K, 200 kPa, Gas | 0.01154
272.6 K, 146 kPa, Gas | 0.01157
272.67 K, 107 kPa, Gas | 0.01162
272.83 K, 272 kPa, Gas | 0.0116
272.84 K, 263 kPa, Gas | 0.01161

Liquid
Settings | thermal conductivity [W/m/K]
243.15 K | 0.08189
253.15 K | 0.07836
263.15 K | 0.07493
